ChEMBL document CHEMBL3867437, “Oryzamides A-E, Cyclodepsipeptides from the Sponge-Derived Fungus Nigrospora oryzae PF18” (J Nat Prod, 2016)
Values after ≈ are worked out from the molar mass of the structure shown.

Key:
[1] = Cytotoxicity against human HeLa cells after 48 hrs by MTT assay; type: functional, cell-based
Staphylococcus aureus [2] = assay: Antibacterial activity against methicillin-sensitive Staphylococcus aureus ATCC 25923 after 24 hrs by spectrophotometric analysis; type: functional; settings: ATCC 25923, 24 h
Staphylococcus aureus [3] = assay: Antibacterial activity against methicillin-resistant Staphylococcus aureus ATCC 43300 after 24 hrs by spectrophotometric analysis; type: functional; settings: ATCC 43300, 24 h
Escherichia coli = assay: Antibacterial activity against Escherichia coli ATCC 25922 after 24 hrs by spectrophotometric analysis; type: functional; settings: ATCC 25922, 24 h

Structure (SMILES) | IC50 [1] [µM] | MIC (Staphylococcus aureus [2]) [µg/mL] | MIC (Staphylococcus aureus [3]) [µg/mL] | MIC (Escherichia coli) [µg/mL]
CCCCCC[C@H](C)[C@@H]1CC(=O)NCC(=O)N[C@@H](C(C)C)C(=O)N[C@H](CC(C)C)C(=O)N[C@@H](C)C(=O)N[C@@H](CCSC)C(=O)O1 | 31.3 |  |  | 
CCCCCC[C@H](C)[C@@H]1CC(=O)NCC(=O)N[C@@H](C(C)C)C(=O)N[C@H](CC(C)C)C(=O)N[C@@H](C)C(=O)N[C@@H](CC(C)C)C(=O)O1 | 25.7 |  |  | 
CCCCCC[C@H](C)[C@@H]1CC(=O)NCC(=O)N[C@@H](C(C)C)C(=O)N[C@H](CC(C)C)C(=O)N[C@@H](C)C(=O)N[C@@H](Cc2ccc(O)cc2)C(=O)O1 | 12.4 |  |  | 
O=C(N[C@H](CO)[C@H](O)c1ccc([N+](=O)[O-])cc1)C(Cl)Cl [CHLORAMPHENICOL] |  | 2 (≈ 6.19 µM) | 4 (≈ 12.4 µM) | 2 (≈ 6.19 µM)
